Activity calls are given as the source filed them. The calls are words filed in the database; no cut-off is given here.
Assays:
Phosphodiesterase 4 = Phosphodiesterase 4 (Homo sapiens, UniProt P27815+Q08499+Q07343+Q08493); test: Inhibition of PDE4 (unknown origin); assay type: protein assay
[1] = target: T1, 11-beta-hydroxysteroid dehydrogenase type 2 (Homo sapiens, UniProt P80365); test: Inhibition of recombinant 11beta-HSD2 (unknown origin) assessed as conversion of cortisol to cortisone after 40 mins by fluorescence assay
T1 sequence (P80365 whole entry): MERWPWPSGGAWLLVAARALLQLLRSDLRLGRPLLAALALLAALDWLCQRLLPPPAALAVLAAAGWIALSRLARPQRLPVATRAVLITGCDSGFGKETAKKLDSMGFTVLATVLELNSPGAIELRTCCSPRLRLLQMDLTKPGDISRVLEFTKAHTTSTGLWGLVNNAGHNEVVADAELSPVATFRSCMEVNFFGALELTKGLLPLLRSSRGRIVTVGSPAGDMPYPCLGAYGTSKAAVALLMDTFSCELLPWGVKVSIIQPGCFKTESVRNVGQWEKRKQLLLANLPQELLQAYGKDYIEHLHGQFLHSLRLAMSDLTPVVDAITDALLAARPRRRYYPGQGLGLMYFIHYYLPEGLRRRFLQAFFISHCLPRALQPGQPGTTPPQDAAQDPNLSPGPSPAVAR

[2] = target: T2, Mineralocorticoid receptor (Homo sapiens) (UniProt P08235); test: Activity at mineralocorticoid receptor (unknown origin)
T2 sequence (whole entry): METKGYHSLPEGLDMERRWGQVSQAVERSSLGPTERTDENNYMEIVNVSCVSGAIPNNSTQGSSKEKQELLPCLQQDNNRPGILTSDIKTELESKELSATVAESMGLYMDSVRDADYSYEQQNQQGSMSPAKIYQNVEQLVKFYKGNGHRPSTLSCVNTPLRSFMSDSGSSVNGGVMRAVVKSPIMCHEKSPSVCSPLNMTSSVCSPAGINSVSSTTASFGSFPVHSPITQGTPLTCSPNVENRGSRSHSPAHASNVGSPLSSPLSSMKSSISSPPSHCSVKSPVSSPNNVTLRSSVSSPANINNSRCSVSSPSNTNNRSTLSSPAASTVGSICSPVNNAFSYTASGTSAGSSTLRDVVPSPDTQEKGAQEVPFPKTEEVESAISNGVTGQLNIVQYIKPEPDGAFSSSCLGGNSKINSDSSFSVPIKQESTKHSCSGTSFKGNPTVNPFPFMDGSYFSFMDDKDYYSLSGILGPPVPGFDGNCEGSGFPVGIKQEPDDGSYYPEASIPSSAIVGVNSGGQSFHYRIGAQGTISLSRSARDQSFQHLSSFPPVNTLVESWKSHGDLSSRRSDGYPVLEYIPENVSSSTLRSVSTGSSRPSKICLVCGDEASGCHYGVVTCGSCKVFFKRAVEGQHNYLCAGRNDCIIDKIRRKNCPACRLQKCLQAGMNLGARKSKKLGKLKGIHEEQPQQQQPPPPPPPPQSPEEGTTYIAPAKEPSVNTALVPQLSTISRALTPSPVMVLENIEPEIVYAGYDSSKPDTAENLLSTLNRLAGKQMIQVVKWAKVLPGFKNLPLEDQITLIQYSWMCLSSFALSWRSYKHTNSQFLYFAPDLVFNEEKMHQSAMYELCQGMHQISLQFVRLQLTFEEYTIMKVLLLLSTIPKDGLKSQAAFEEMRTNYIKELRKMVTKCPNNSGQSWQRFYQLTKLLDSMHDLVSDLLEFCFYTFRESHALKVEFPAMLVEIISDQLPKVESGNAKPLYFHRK

Mus musculus = test: Ex vivo inhibition of 11beta-HSD1-mediated conversion of [3H]-cortisone to [3H]-cortisol in C57Bl6J mouse adipose tissue at 30 mg/kg, po after 1 hr by scintillation counting analysis relative to control; assay type: functional
CYP3A4 = CYP3A4 (Homo sapiens, UniProt P08684); test: Inhibition of CYP3A4 (unknown origin) at 10 uM relative to control; assay type: ADME
Sequence of CYP3A4 (P08684 whole entry): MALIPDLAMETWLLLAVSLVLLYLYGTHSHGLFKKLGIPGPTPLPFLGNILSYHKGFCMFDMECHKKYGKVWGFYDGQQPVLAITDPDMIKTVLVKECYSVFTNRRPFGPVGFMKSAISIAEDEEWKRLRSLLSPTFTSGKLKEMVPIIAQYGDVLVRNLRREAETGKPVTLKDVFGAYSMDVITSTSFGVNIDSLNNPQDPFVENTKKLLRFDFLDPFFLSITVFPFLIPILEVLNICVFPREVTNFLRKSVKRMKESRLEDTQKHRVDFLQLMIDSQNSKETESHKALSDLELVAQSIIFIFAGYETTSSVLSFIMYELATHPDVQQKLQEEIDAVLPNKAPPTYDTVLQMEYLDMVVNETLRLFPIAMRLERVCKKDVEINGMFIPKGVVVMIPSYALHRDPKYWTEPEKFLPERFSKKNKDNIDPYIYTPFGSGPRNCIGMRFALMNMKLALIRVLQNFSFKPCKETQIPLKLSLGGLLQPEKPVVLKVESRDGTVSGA

[3] = Plasma clearance in dog at 1 to 3 mg/kg; assay type: ADME, organism-based, Canis lupus familiaris; parameters: dose 1-3 mg/kg
[4] = Fraction unbound in dog plasma by equilibrium dialysis technique; assay type: ADME, cell-free, Canis lupus familiaris
[5] = target: T3, Glucocorticoid receptor (Homo sapiens) (UniProt P04150); test: Activity at glucocorticoid receptor (unknown origin)
T3 sequence (whole entry): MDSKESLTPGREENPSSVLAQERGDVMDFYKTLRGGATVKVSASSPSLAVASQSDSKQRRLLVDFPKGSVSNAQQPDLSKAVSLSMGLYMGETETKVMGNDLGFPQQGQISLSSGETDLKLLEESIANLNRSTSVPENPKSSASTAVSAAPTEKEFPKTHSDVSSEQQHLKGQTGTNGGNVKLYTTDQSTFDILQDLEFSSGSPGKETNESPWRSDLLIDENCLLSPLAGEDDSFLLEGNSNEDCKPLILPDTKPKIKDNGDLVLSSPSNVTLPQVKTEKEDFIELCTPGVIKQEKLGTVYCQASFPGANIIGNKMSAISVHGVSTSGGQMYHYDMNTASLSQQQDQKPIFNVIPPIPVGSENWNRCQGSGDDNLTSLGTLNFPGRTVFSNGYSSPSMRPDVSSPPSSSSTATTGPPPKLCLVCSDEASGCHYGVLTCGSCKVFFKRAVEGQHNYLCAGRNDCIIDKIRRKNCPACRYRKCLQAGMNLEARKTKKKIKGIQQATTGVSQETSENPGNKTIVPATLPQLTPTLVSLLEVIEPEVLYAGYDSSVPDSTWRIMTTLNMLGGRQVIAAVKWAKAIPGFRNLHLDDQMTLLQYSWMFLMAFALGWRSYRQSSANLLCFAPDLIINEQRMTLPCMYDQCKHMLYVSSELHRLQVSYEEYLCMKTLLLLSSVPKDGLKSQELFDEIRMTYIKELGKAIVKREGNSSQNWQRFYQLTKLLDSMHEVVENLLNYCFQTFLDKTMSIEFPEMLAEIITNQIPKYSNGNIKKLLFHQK

[6] = Volume of distribution at steady state in mouse at 1 to 3 mg/kg; assay type: ADME, organism-based; parameters: dose 1-3 mg/kg; conditions: in vivo, read-out: Vdss
[7] = target: 11-beta-hydroxysteroid dehydrogenase 1 (Homo sapiens, UniProt P28845); test: Inhibition of 11beta-HSD1 in human adipocytes assessed as conversion of [3H]-cortisone to [3H]-cortisol by scintillation counting analysis; assay type: cell-based
Sequence of 11-beta-hydroxysteroid dehydrogenase 1 (P28845 whole entry): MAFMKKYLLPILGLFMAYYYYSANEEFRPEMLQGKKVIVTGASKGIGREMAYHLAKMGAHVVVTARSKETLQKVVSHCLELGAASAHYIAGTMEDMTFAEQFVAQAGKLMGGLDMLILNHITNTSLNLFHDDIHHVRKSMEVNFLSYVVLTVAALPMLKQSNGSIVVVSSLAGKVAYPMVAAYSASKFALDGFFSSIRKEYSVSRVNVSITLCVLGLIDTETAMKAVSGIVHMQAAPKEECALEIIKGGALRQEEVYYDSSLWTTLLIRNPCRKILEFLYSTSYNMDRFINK

[8] = Fraction unbound in human plasma by equilibrium dialysis technique; assay type: ADME, cell-free
[9] = Clearance in rat hepatocytes measured per 10^6 cells; assay type: ADME, cell-based, Hepatocyte; conditions: read-out: CLH

Question: Which IC50 (Phosphodiesterase 4) does the source give for `CSc1nc(N2C[C@@H]3[C@H](C2)[C@H]3C(=O)O)ccc1C(=O)NC12CC3CC(CC(C3)C1)C2` here?
Answer: 30 µM

Question: And the IC50 [1]?
Answer: > 30 µM

Question: And the Activity [2]?
Answer: inactive

Question: What about the inhibition in vivo at 30 mg/kg (Mus musculus) of the same compound?
Answer: 50%

Question: And the inhibition at 10 µM (CYP3A4)?
Answer: < 25%

Question: And the clearance [3]?
Answer: 1 mL/min/kg

Question: What about the fraction unbound [4] of the same compound?
Answer: 0.015

Question: What about the Activity [5] of the same compound?
Answer: inactive

Question: What about the Vd [6] of the same compound?
Answer: 1.2 L/kg

Question: What about the IC50 [7] of the same compound?
Answer: 4 nM

Question: And the fraction unbound [8]?
Answer: 0.011

Question: And the hepatocyte CLint [9]?
Answer: 6 µL/min/1e6 cells

From ChEMBL document CHEMBL3217743, “Reduction of acyl glucuronidation in a series of acidic 11-hydroxysteroid dehydrogenase type 1 (11-HSD1) inhibitors: the discovery of AZD6925” (Medchemcomm, 2012)
